# According to patent publication US7576094B2, “Spiro derivatives as lipoxygenase inhibitors” (Eli Lilly and Company, priority 2004, dated 2009):
# Experiments:
# [1] = target: T1, human recombinant 5-Lipoxygenase (Homo sapiens, UniProt P09917); experiment: 5-Lipoxygenase Enzyme Assay; format: biochemical; conditions: 70 μM arachidonic acid, 10 minute incubation at room temperature, FOX reagent, absorbance at 620 nm; read-out: inhibition of 5-Lipoxygenase with an IC50
# T1 sequence (P09917 1-674): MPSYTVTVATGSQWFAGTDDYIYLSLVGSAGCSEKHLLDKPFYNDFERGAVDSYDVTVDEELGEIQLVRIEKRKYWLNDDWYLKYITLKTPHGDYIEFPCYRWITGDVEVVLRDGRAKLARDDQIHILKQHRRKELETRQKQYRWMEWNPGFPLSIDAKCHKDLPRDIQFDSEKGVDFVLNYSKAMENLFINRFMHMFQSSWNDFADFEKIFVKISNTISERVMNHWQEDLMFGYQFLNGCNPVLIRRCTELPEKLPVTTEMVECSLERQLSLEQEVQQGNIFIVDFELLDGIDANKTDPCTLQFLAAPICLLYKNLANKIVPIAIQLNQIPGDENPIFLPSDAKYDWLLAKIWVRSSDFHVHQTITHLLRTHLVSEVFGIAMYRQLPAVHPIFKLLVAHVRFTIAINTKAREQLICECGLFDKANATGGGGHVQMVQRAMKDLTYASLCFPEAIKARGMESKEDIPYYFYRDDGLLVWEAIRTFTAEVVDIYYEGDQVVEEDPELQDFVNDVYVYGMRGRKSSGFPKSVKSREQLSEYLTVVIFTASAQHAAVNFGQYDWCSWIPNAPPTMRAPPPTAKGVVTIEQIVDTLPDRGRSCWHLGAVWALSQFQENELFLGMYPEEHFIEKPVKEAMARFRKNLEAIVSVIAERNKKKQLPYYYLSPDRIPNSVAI
# Method in brief: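 Recombinant human 5-LOX in 50 mM Tris-HCl pH 7.4 was preincubated with compound, then 70 μM arachidonic acid was added for 10 min at room temperature. Hydroperoxide was read by FOX reagent (ferric xylenol orange, 1 h complex formation) as absorbance at 620 nm. Five concentrations in triplicate were tested, starting at 10 μM.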
# [2] = tested on: LTB4 production in human whole blood; experiment: Inhibition of LTB4 Production in Blood; format: cell-based; conditions: 1 h, 20 μM A23187, 60 minutes at 37° C., LTB4 in plasma by ELISA, read-out: protection against LTB4 at an EC50
# Method in brief: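 Citrated human whole blood preincubated 15 min at 37 °C with compound (top final 30 μM, 1:3 dilutions, quadruplicate), then stimulated with 20 μM A23187 for 60 min at 37 °C. Plasma LTB4 quantified by ELISA; IC50 from percent inhibition versus vehicle.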
Compound,IC50 [1] [µM],EC50 [2] [µM]
"Cc1c(C)c2c(c(C)c1O)C1(CCC1)CC(C)(C)S2 [2′,2′,5′,7′,8′-pentamethyl-2′,3′-dihydrospiro[cyclobutane-1,4′-thiochromen]-6′-ol]",< 0.3,< 10
"Cc1cc2c(c(C)c1O)C=CC1(CCC1)O2 [5,7-dimethylspiro[chromene-2,1′-cyclobutan]-6-ol]",< 0.3,< 10
"CO/N=C1\CC2(CCC2)Sc2c(C)c(C)c(O)c(C)c21 [6′-hydroxy-5′,7′,8′-trimethylspiro[cyclobutane-1,2′-thiochroman]-4′(3′H)-one O-methyloxime]",< 0.3,< 10
"Cc1c(C)c2c(c(Cl)c1O)CCC1(CCC1)O2 [5-chloro-7,8-dimethyl-3,4-dihydrospiro[chromene-2,1′-cyclobutan]-6-ol]",< 0.3,–
"Cc1c(C)c2c(c(C)c1O)C1(CCC1)CCS2 [5′,7′,8′-trimethyl-2′,3′-dihydrospiro[cyclobutane, 1,4′-thiochromen]-6′-ol]",< 0.3,–
"Cc1c(O)c(C(C)(C)C)cc2c1CCC1(CCC1)O2 [7-tert-butyl-5-methyl-3,4-dihydrospiro[chromene-2,1′-cyclobutan]-6-ol]",< 0.3,< 10
"CCO/N=C/C1=Cc2c(cc(C)c(O)c2C)OC12CCC2 [6-hydroxy-5,7-dimethylspiro[chromene-2,1′-cyclobutane]-3-carbaldehyde O-ethyloxime]",< 0.3,< 10
"CCONC1CC2(CCC2)Sc2c(C)c(C)c(O)c(C)c21 (stereo not drawn) [4′-(ethoxyamino)-5′,7′,8′-trimethyl-3′,4′-dihydrospiro[cyclobutane-1,2′-thiochromen]-6′-ol]",< 0.3,< 10
"Cc1cc2c(c(C)c1O)CC1(CCC1)CO2 [5,7-dimethylspiro[chroman-3,1′-cyclobutan]-6-ol]",< 0.3,< 10
"CONC1CC2(CCC2)Sc2cc(C)c(O)c(C)c21 (stereo not drawn) [4′-(methoxyamino)-5′,7′-dimethyl-3′,4′-dihydrospiro[cyclobutane-1,2′-thiochromen]-6′-ol]",< 0.3,< 10
"Cc1cc2c(c(C)c1O)CCC1(CCC1)O2 [5,7-dimethyl-3,4-dihydrospiro[chromene-2,1′-cyclobutan]-6-ol]",< 0.3,< 10
"CCONC1CC2(CCC2)Sc2cc(C)c(O)c(C)c21 (stereo not drawn) [4′-(ethoxyamino)-5′,7′-dimethyl-3′,4′-dihydrospiro[cyclobutane-1,2′-thiochromen]-6′-ol]",< 0.3,< 10
"Cc1c(O)cc2c(c1C)OC1(CCC1)CC2 [7,8-dimethyl-3,4-dihydrospiro[chromene-2,1′-cyclobutan]-6-ol]",< 0.3,< 10
"CCc1cc2c(c(CC)c1O)CC(CSCC(=O)OC)C1(CCC1)O2 (stereo not drawn) [methyl 2-((5,7-diethyl-6-hydroxyspiro[chroman-2,1′-cyclobutane]-3-yl)methylthio)acetate]",< 0.3,< 10
"COC(C)C1=Cc2c(C)c(O)c(C)c(C)c2OC12CCC2 (stereo not drawn) [3-(1-methoxyethyl)-5,7,8-trimethylspiro[chromene-2,1′-cyclobutan]-6-ol]",< 0.3,< 10
"Cc1c(C)c2c(c(C)c1O)CCC1(CC1)O2 [5,7,8-trimethyl-3,4-dihydrospiro[chromene-2,1′-cyclopropan]-6-ol]",< 0.3,< 10
"CC(C)(C)c1cc2c(cc1O)CCC1(CCC1)O2 [7-tert-butyl-3,4-dihydrospiro[chromene-2,1′-cyclobutan]-6-ol]",< 0.3,< 10
"CCONCC1=Cc2c(cc(C)c(O)c2C)OC12CCC2 [3-[(ethoxyamino)methyl]-5,7-dimethylspiro[chromene-2,1′-cyclobutan]-6-ol]",< 0.3,< 10
"CONC1CC2(CCC2)Sc2c(C)c(C)c(O)c(C)c21 (stereo not drawn) [4′-(methoxyamino)-5′,7′,8′-trimethyl-3′,4′-dihydrospiro[cyclobutane-1,2′-thiochromen]-6′-ol]",< 0.3,< 10
